Assay [1] concerns Helicoverpa zea. The assay can be described thus: Insecticidal activity against corn ear worm first instar larvae assessed as reduction in growth at 200 ppm administered with standard test diet relative to control. The assay is classed as functional. Also noted: scale not given: the % may be the effect or the level left.
Assay [2] has as its system Helicoverpa zea. The assay can be described thus: Insecticidal activity against corn ear worm first instar larvae assessed as mortality at 200 ppm administered with standard test diet. The assay is classed as functional.
Assay [3] has as its system Helicoverpa zea. The assay can be described thus: Insecticidal activity against corn ear worm first instar larvae assessed as cuticle/exoskeleton rupture in dead larvae at 200 ppm administered with standard test diet. In kind it is functional, organism-based.
The subject of assay [4] is Helicoverpa zea. Kind of assay: Insecticidal activity against corn ear worm first instar larvae assessed as laterally shriveled in dead larvae at 200 ppm administered with standard test diet. In kind it is functional, organism-based.
Assay [5] relates to Helicoverpa zea. Kind of assay: Insecticidal activity against corn ear worm first instar larvae assessed as blackened in dead larvae at 200 ppm administered with standard test diet. In kind it is functional, organism-based.
In assay [6] the test system is Helicoverpa zea. Kind of assay: Insecticidal activity against corn ear worm first instar larvae assessed as bloating of area just prior to rear body in surviving larvae at 200 ppm administered with standard test diet. In kind it is functional, organism-based.
The subject of assay [7] is Carpophilus. The assay can be described thus: Antifeedant activity against Carpophilus hemipterus adult assessed as reduction in feeding rate at 100 ppm. In kind it is functional.
The nature of assay [8]: Cytotoxicity against human NCI60 cells. The assay is classed as functional.

Active and inactive are the calls of the source. The rule behind the calls is not given here. Where only a bound is given, the exact number is not on record here.

Activity and GI50 data for one molecule are collected here from ChEMBL document CHEMBL1158315, “Sclerotiamide: a new member of the paraherquamide class with potent antiinsectan activity from the sclerotia of Aspergillus sclerotiorum” (1996).

By GI50 is commonly meant the concentration giving 50% growth inhibition.

Regarding `CC1(C)C=Cc2c(ccc3c2NC(=O)[C@@]32[C@H](O)[C@@]34NC(=O)[C@]5(CCCN5C3=O)C[C@H]4C2(C)C)O1` [SCLEROTIAMIDE], the Activity in assay [1] was 98%; in assay [2], 46%; in assay [8] it was 44%. The result in assay [3], in assay [4], in assay [5] and in assay [6] was Active. For the same molecule, the GI50 in assay [7] is greater than 25 µg/mL.
